# ChEMBL document CHEMBL1255321, “Prevalence of the erm(T) gene in clinical isolates of erythromycin-resistant group D Streptococcus and Enterococcus” (2008)
# The source made the active and inactive calls. The rule behind the calls is not given here.
# Experiments:
# [1] = system: Streptococcus sp.; assay: Antimicrobial activity against Group D Streptococcus sp. clinical isolates expressing erm(T) gene by Etest; format: functional
# [2] = system: Streptococcus sp.; assay: Antimicrobial activity against Group D Streptococcus sp. clinical isolates assessed as resistant isolates; format: functional
# [3] = system: Streptococcus sp.; assay: Antimicrobial activity against erythromycin-resistant Group D Streptococcus sp. clinical isolates expressing erm(T) gene by Etest; format: functional
# [4] = system: Enterococcus faecium; assay: Antimicrobial activity against Group D Enterococcus faecium clinical isolate expressing erm(B) and erm(T) genes by disk diffusion method; format: functional, organism-based
# [5] = system: Enterococcus faecium; assay: Antimicrobial activity against Group D Enterococcus faecium clinical isolate expressing erm(B) gene by disk diffusion method; format: functional, organism-based
# [6] = system: Enterococcus faecalis; assay: Antimicrobial activity against Group D Enterococcus faecalis clinical isolate expressing erm(B) gene by disk diffusion method; format: functional, organism-based
SMILES,MIC [1] [µg/mL],Activity [2] [%],MIC [3] [µg/mL],Activity [4],Activity [5],Activity [6]
CCC[C@@H]1C[C@@H](C(=O)N[C@@H]([C@H]2O[C@H](SC)[C@H](O)[C@@H](O)[C@H]2O)[C@H](C)Cl)N(C)C1 [CLINDAMYCIN],0.125,33,,,,
CC[C@H]1OC(=O)[C@H](C)[C@@H](O[C@H]2C[C@@](C)(OC)[C@@H](O)[C@H](C)O2)[C@H](C)[C@@H](O[C@@H]2O[C@H](C)C[C@H](N(C)C)[C@H]2O)[C@](C)(O)C[C@@H](C)C(=O)[C@H](C)[C@@H](O)[C@]1(C)O [ERYTHROMYCIN],0.064,54,≥ 256,inactive,inactive,inactive
